Where two headings read alike, the source gives them in different places.
Experiments:
[1] = molecular target: Atg7 (autophagy-related protein-7) (Homo sapiens, UniProt O95352); assay: ATG7 E1-E2 transthiolation HTRF assay (GABARAP); type: biochemical; details: read-out: ATG7 IC50 HTRF RH-GABARAP
Excerpt: An Homogeneous Time-Resolved Fluorescence (HTRF) enzyme assay was employed to evaluate compound activity against ATG7 as previously described. In this assay, a Flag-tagged ATG8 homolog (GABA type A receptor-associated protein; GABARAP) is activated by ATG7 and then transthiolated to a GST-tagged E2 (ATG3). The product of the enzyme reaction, Flag-GABARAP-ATG3-GST, is quantified by measuring FRET between Europium-Cryptate labelled monoclonal anti-Flag M2 (FLAG M2-Eu cryptate; Revvity, Cat# 61FG2KLB) and […] (Anti-GST IgG conjugated to SureLight-Allophycocyanin) (Revvity, Cat# AD0059G)). The activation and transthiolation of ubiquitin by UAE, activation and transthiolation of NEDD8 by NAE and activation and transthiolation of SUMO by SAE were all assayed in a similar fashion with appropriately tagged ubiquitin-like proteins and E2 conjugating enzymes as described.

[2] = system: stage V NF54 strain male and female gametocytes; assay: P. falciparum Dual Gamete Formation Assay (PfDGFA); type: cell-based; details: Plasmodium falciparum, 48 h
Procedure: Inhibition of the viability of stage V male and female gametocytes was assessed in the P. falciparum Dual Gamete Formation Assay (PfDGFA) as described previously. Briefly, mature stage V NF54 strain gametocytes were incubated with test molecules for 48 h in 384-well plates at 37°C. Gametogenesis was then triggered by cooling the plates to room temperature and addition of xanthurenic acid-containing activating medium (also containing anti-Pfs25 antibody (Mab 4B7) conjugated to a Cy3 fluorophore). Twenty minutes after activation, exflagellation was imaged in all wells of the plate using a x4 objective and automated brightfield microscopy. The plate was then incubated at 20°C for a further 24 h in the dark. Thereafter, female gamete formation was quantified by automated identification of Pfs25-positive cells. Automated counts were transformed to percent inhibition values with reference to positive 100 nM Cabamiquine (DDD498) and negative (DMSO) controls. Data represent the means of multiple independent biological repeats.

Rat pharmacokinetics = type: in vivo, Sprague-Dawley rats; details: for half-life: read-out: T1/2z (converted)
Procedure: Sprague-Dawley rats (11 weeks old) were sourced from Hilltop Lab Animals, Inc (Scottdale, Pennsylvania, USA). […] Blood was collected from a jugular cannula at 0.083, 0.25, 0.5, 1, 2, 4, 8 and 24 h post i.v. dosing, and at the same times (except the 0.083-h sample) following oral administration. A portion of the blood samples were processed into plasma. Samples were precipitated with 0.5% formic acid in methanol and the supernatants were analysed by positive ion electrospray LC-MS for the administered compound. Non-compartmental pharmacokinetic parameters were calculated from individual concentration vs time profiles using Phoenix 64 WinNonlin (Version 8.1 Certara, Princeton NJ).

Caco-2 permeability = type: in vitro ADME; details: human
Procedure: Permeability studies were performed as described previously. In brief, Caco-2 cells were cultured for 21–25 days to differentiate them into enterocyte-like cells. The transepithelial electrical resistance (TEER) was measured to ensure tight junction formation and cells with TEER value more than 250 ohms.cm^2 were used in the study. On the day of the transport study, cells were washed with warm HBSS buffer and equilibrated with buffer for 60 min. ML471 was added at a concentration of 5 μM (containing 50 μM Lucifer Yellow) into a 24 Transwell cell plate (apical 210 μL and basal 1000 μL) and buffer was added in the receiver side. Cells were incubated at 37°C for 60 min and 120 μL aliquots were taken from the receiver side after 30 and 60 min. Samples were mixed with 100 nM carbutamide in acetonitrile (ACN) containing 0.1% formic acid (internal standard). Samples were centrifuged at 2,056 x g for 10 min and the supernatant was collected and analyzed for quantification of the test article by LC-MS [49].

[3] = system: P. falciparum liver stage schizont (NF175); design: method as in ref [1] Xie et al., Science 2022; details: ref [1] Xie et al., Science 2022; cited from earlier work
[4] = male, Sprague-Dawley, IV 1 mg/kg, plasma
[5] = male, Sprague-Dawley, PO 1 mg/kg, plasma
[6] = male, Sprague-Dawley, PO 10 mg/kg, plasma
[7] = male, Sprague-Dawley, PO 25 mg/kg, plasma
[8] = male, Sprague-Dawley, whole blood, IV 1 mg/kg, blood
[9] = male, Sprague-Dawley, whole blood, PO 1 mg/kg, blood
[10] = male, Sprague-Dawley, whole blood, PO 10 mg/kg, blood
[11] = male, Sprague-Dawley, whole blood, PO 25 mg/kg, blood

Atg7 (autophagy-related protein-7), sequence (O95352 whole entry): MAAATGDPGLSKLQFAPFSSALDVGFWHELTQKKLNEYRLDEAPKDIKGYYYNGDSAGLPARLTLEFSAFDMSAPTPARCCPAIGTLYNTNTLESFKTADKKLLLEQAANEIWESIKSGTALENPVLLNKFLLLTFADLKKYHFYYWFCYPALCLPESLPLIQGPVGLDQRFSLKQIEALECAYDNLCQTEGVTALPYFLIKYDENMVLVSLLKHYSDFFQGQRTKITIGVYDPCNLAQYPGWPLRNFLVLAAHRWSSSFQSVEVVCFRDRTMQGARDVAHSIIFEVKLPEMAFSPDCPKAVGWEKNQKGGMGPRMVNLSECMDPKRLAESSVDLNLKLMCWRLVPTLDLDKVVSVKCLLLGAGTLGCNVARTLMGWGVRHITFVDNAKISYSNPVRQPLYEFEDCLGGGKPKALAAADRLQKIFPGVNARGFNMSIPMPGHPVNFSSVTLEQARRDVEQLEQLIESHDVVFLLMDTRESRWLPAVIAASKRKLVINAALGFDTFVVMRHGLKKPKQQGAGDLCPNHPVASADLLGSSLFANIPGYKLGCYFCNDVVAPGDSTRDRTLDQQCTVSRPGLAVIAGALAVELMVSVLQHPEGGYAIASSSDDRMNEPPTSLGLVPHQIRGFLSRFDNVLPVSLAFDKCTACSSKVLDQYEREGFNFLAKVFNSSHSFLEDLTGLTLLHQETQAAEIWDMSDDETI

## CC(C)c1nn([C@@H]2O[C@H](COS(N)(=O)=O)[C@@H](O)[C@H]2O)c2ncnc(N)c12 [ML471, ((2R,3S,4R,5R)-5-(4-amino-3-isopropyl-1H-pyrazolo[3,4-d]pyrimidin-1-yl)-3,4-dihydroxytetrahydrofuran-2-yl)methyl sulfamate]
[1]
  IC50: 22 ± 9 nM
[2]; female, read-out: Dual gamete formation assay (female) IC50(48h)
  IC50: 260 nM
[2]; male, read-out: Dual gamete formation assay (male) IC50(48h)
  IC50: 49 nM
Rat pharmacokinetics; 0–24 h urine
  dose recovered in 0–24 h urine as parent: 9–38 % of the dose
Rat pharmacokinetics; 25 mg/kg p.o., blood
  area under the curve: 30 µM·h
Rat pharmacokinetics; IV dose of 1 mg/kg
  blood clearance as share of liver blood flow: ~ 4 % of liver blood flow
Rat pharmacokinetics; [4]
  Cmax: 1540 nM
  Tmax: 4.8 min
  clearance: 64 mL/min/kg
  half-life: 133 min
Rat pharmacokinetics; [5]
  Cmax: 19.1 nM
  Tmax: 30 min
  half-life: 527 min
Rat pharmacokinetics; male, Sprague-Dawley, PO 1 mg/kg, plasma, read-out: %F
  bioavailability: 27.7%
Rat pharmacokinetics; [6]
  Cmax: 196 nM
  Tmax: 22.8 min
  half-life: 549 min
Rat pharmacokinetics; male, Sprague-Dawley, PO 10 mg/kg, plasma, read-out: %F
  bioavailability: 25.2%
Rat pharmacokinetics; [7]
  Cmax: 393 nM
  Tmax: 45 min
  half-life: 214 min
Rat pharmacokinetics; male, Sprague-Dawley, PO 25 mg/kg, plasma, read-out: %F
  bioavailability: 16.4%
Rat pharmacokinetics; male, Sprague-Dawley, plasma, iv, 1 mg/kg, IV 1 mg/kg, plasma, read-out: Vss
  Vd: 2.79 L/kg
Rat pharmacokinetics; male, Sprague-Dawley, plasma, iv, 1 mg/kg, IV 1 mg/kg, plasma, read-out: Vz
  Vd: 12.3 L/kg
Rat pharmacokinetics; male, Sprague-Dawley, whole blood and plasma, intravenous, 1 mg/kg, time 0.083 h
  blood plasma ratio at 0.083 h: 0.8
Rat pharmacokinetics; male, Sprague-Dawley, whole blood and plasma, intravenous, 1 mg/kg, time 0.25 h
  blood plasma ratio at 0.25 h: 1.5
Rat pharmacokinetics; male, Sprague-Dawley, whole blood and plasma, intravenous, 1 mg/kg, time 0.5 h
  blood plasma ratio at 0.5 h: 2.1
Rat pharmacokinetics; male, Sprague-Dawley, whole blood and plasma, intravenous, 1 mg/kg, time 1 h
  blood plasma ratio at 1 h: 5.5
Rat pharmacokinetics; male, Sprague-Dawley, whole blood and plasma, intravenous, 1 mg/kg, time 2 h
  blood plasma ratio at 2 h: 17.8
Rat pharmacokinetics; male, Sprague-Dawley, whole blood and plasma, intravenous, 1 mg/kg, time 4 h
  blood plasma ratio at 4 h: 48.9
Rat pharmacokinetics; male, Sprague-Dawley, whole blood and plasma, intravenous, 1 mg/kg, time 8 h
  blood plasma ratio at 8 h: 114
Rat pharmacokinetics; male, Sprague-Dawley, whole blood and plasma, iv, 1 mg/kg, i.v. PK study, read-out: blood to plasma ratio at the initial sampling times
  blood plasma ratio: ~1
Rat pharmacokinetics; [8]
  Cmax: 1180 nM
  Tmax: 10.2 min
  clearance: 2.3 mL/min/kg
  half-life: 2200 min
Rat pharmacokinetics; [9]
  Cmax: 39.3 nM
  Tmax: 960 min
  half-life: 1390 min
Rat pharmacokinetics; male, Sprague-Dawley, whole blood, PO 1 mg/kg, blood, read-out: %F
  bioavailability: 9.29%
Rat pharmacokinetics; [10]
  Cmax: 261 nM
  Tmax: 360 min
  half-life: 1770 min
Rat pharmacokinetics; male, Sprague-Dawley, whole blood, PO 10 mg/kg, blood, read-out: %F
  bioavailability: 9.56%
Rat pharmacokinetics; [11]
  Cmax: 669 nM
  Tmax: 480 min
Rat pharmacokinetics; male, Sprague-Dawley, whole blood, PO 25 mg/kg, blood, read-out: %F
  bioavailability: 8.72%
Rat pharmacokinetics; male, Sprague-Dawley, whole blood, PO 25 mg/kg, blood, terminal half-life, T1/2∞
  half-life: 1830 min
Rat pharmacokinetics; male, Sprague-Dawley, whole blood, iv, 1 mg/kg, IV 1 mg/kg, blood, read-out: Vss
  Vd: 6.25 L/kg
Rat pharmacokinetics; male, Sprague-Dawley, whole blood, iv, 1 mg/kg, IV 1 mg/kg, blood, read-out: Vz
  Vd: 6.54 L/kg
Rat pharmacokinetics; male, Sprague-Dawley, whole blood, oral, blood, range over doses, read-out: %F (blood), rat oral bioavailability
  bioavailability: 8.72 to 9.56%
Caco-2 permeability; 5 μM, 60 min, second figure of the cell, read-out: Caco2 Papp (A to B)
  Papp A→B at 60 min, 5 μM: 0.17 ×10⁻⁶ cm/s
Caco-2 permeability; 5 μM, 60 min, third figure of the cell, read-out: Caco2 Papp (B to A)
  Papp B→A at 60 min, 5 μM: 1.3 ×10⁻⁶ cm/s
Caco-2 permeability; equals B to A / A to B, read-out: Caco2, first figure of the cell, not given
  efflux ratio at 60 min, 5 μM: 7.6

## Nc1ncnc2c1c(OC(F)F)nn2[C@@H]1O[C@H](COS(N)(=O)=O)[C@@H](O)[C@H]1O [ML901]
[3]
  IC50: 13 ± 5 nM
